“And” between values parts separate entries of the source, which are not always exact repeats. Equal values may be shown once.
Assays:
[1] = Study No. 140123: feed consumption of UACC-257 inoculated mice; format: in vivo, Balb/c^nu/nu mice; conditions: average over day 17-34 intervals, with standard deviation
Protocol: Treatment of cancer-induced weight loss with anti-GDF-15 antibodies. In the underlying animal study No. 140123, 10 Balb/c^nu/nu mice per treatment group were subcutaneously inoculated with 10×10^6 UACC-257 cells per animal in a 1:1 volume ratio with matrigel (100 μl cells+100 μl matrigel). The animals were treated on the same day with the respective antibodies, as indicated below:
In addition to evaluating the mean body weight of the mice, the feed consumption of the mice was evaluated by pairwise comparisons of the study groups (Table 1).

human GDF-15 = biological target: T1, human GDF-15 (Homo sapiens, UniProt Q99988); test: Kd determination by Surface Acoustic Wave (SAW) gold chip biosensors; format: binding; conditions: murine B1-23 stabilized with 0.2% BSA, H1L5 as CHO supernatant
T1 sequence (Q99988 with tags, fused parts or gaps limits assumed): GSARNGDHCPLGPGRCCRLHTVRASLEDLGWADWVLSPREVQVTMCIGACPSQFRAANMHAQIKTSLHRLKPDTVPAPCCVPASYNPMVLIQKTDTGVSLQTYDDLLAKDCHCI
Text: Determination of Kd values of anti-GDF-15 antibodies. The Kd values of different anti-GDF-15 antibodies were compared using Surface Acoustic Wave (SAW) gold chip biosensors technology (SAW Instruments GmbH, Schwertberger Str. 16, D-53177 Bonn, Germany):
The murine antibody (B1-23) as well as the chimeric B1-23 antibody were present in purified form. The H1L5 humanized B1-23 antibody was a serum-free CHO cell culture supernatant.

[2] = comparison value, antigen not given; read-out: equilibrium dissociation constant of therapeutic antibody; cited from earlier work

Row | Kd (human GDF-15) | Compound | Feed consumption per mouse and day [1] | Kd [2]
1 |  | CN(C)/N=N/c1[nH]cnc1C(N)=O [dacarbazine, Dacarbazine, reference compound] | 2.8 ± 0.2 g | 
2 | 1120 nM | Rituximab: therapeutically used antibody; control antibody in SAW assay |  | ~8 nM and 8 nM

— patent US11760795B2, “Monoclonal antibodies to growth and differentiation factor 15 (GDF-15), and uses thereof for treating cancer cachexia and cancer” (JULIUS-MAXIMILIANS-UNIVERSITÄT WÜRZBURG, priority 2014, dated 2023)
